Reference: the NIST ThermoML archive (doi:10.1016/j.jct.2012.03.015)
± gives the expanded uncertainty stated by the source.

Assay: activity coefficient (dimensionless); of the first substance listed, at infinite dilution; xn = mol fraction of the nth substance listed
Conditions: 101 kPa, Liquid, Chromatography, x1 = 0

| SMILES | activity coefficient (318.15 K) | activity coefficient (328.15 K) | activity coefficient (338.15 K) | activity coefficient (348.15 K) | activity coefficient (358.15 K) | activity coefficient (368.15 K) |
| --- | --- | --- | --- | --- | --- | --- |
| CCCCCCCCCC [decane] + COCC[N+]1(C)CCCC1.O=S(=O)([N-]S(=O)(=O)C(F)(F)F)C(F)(F)F | 83.1 ± 5.7 | 75.5 ± 5.2 | 68.1 ± 4.7 | 61.8 ± 4.2 | 56.1 ± 3.8 | 51.3 ± 3.5 |
| CCOCC [diethyl ether] + COCC[N+]1(C)CCCC1.O=S(=O)([N-]S(=O)(=O)C(F)(F)F)C(F)(F)F | 2.79 ± 0.19 | 2.79 ± 0.19 | 2.78 ± 0.19 | 2.78 ± 0.19 | 2.78 ± 0.19 | 2.78 ± 0.19 |
| CC(C)OC(C)C [diisopropyl ether] + COCC[N+]1(C)CCCC1.O=S(=O)([N-]S(=O)(=O)C(F)(F)F)C(F)(F)F | 6.63 ± 0.45 | 6.55 ± 0.45 | 6.46 ± 0.44 | 6.39 ± 0.44 | 6.31 ± 0.43 | 6.23 ± 0.42 |
| CCCOCCC [dipropyl ether] + COCC[N+]1(C)CCCC1.O=S(=O)([N-]S(=O)(=O)C(F)(F)F)C(F)(F)F | 7.22 ± 0.49 | 7.03 ± 0.48 | 6.82 ± 0.46 | 6.64 ± 0.45 | 6.47 ± 0.44 | 6.32 ± 0.43 |
| CCO [ethanol] + COCC[N+]1(C)CCCC1.O=S(=O)([N-]S(=O)(=O)C(F)(F)F)C(F)(F)F | 1.77 ± 0.12 | 1.63 ± 0.11 | 1.48 ± 0.1 | 1.38 ± 0.09 | 1.28 ± 0.08 | 1.2 ± 0.08 |
| CCOC(C)=O [ethyl acetate] + COCC[N+]1(C)CCCC1.O=S(=O)([N-]S(=O)(=O)C(F)(F)F)C(F)(F)F | 0.95 ± 0.06 | 0.97 ± 0.06 | 0.98 ± 0.06 | 1 ± 0.06 | 1.02 ± 0.06 | 1.03 ± 0.06 |
| CCc1ccccc1 [ethylbenzene] + COCC[N+]1(C)CCCC1.O=S(=O)([N-]S(=O)(=O)C(F)(F)F)C(F)(F)F | 2.23 ± 0.15 | 2.24 ± 0.15 | 2.24 ± 0.15 | 2.25 ± 0.15 | 2.25 ± 0.15 | 2.26 ± 0.15 |
| CCCCCCC [heptane] + COCC[N+]1(C)CCCC1.O=S(=O)([N-]S(=O)(=O)C(F)(F)F)C(F)(F)F | 28 ± 1.9 | 25.9 ± 1.8 | 24.2 ± 1.7 | 22.6 ± 1.5 | 21.1 ± 1.4 | 19.7 ± 1.3 |
| C=CCCCC [hex-1-ene] + COCC[N+]1(C)CCCC1.O=S(=O)([N-]S(=O)(=O)C(F)(F)F)C(F)(F)F | 9.74 ± 0.66 | 9.34 ± 0.64 | 8.92 ± 0.61 | 8.61 ± 0.59 | 8.24 ± 0.56 | 7.96 ± 0.54 |
| CCCCCC [hexane] + COCC[N+]1(C)CCCC1.O=S(=O)([N-]S(=O)(=O)C(F)(F)F)C(F)(F)F | 19 ± 1.3 | 17.8 ± 1.2 | 16.7 ± 1.1 | 15.9 ± 1.1 | 15 ± 1 | 14.3 ± 1 |
| CO [methanol] + COCC[N+]1(C)CCCC1.O=S(=O)([N-]S(=O)(=O)C(F)(F)F)C(F)(F)F | 1.37 ± 0.09 | 1.27 ± 0.08 | 1.18 ± 0.08 | 1.1 ± 0.07 | 1.03 ± 0.06 | 0.972 ± 0.061 |
| CCCC(=O)OC [methyl butanoate] + COCC[N+]1(C)CCCC1.O=S(=O)([N-]S(=O)(=O)C(F)(F)F)C(F)(F)F | 1.29 ± 0.08 | 1.31 ± 0.09 | 1.33 ± 0.09 | 1.35 ± 0.09 | 1.36 ± 0.09 | 1.38 ± 0.09 |
| COC(C)=O [methyl ethanoate] + COCC[N+]1(C)CCCC1.O=S(=O)([N-]S(=O)(=O)C(F)(F)F)C(F)(F)F | 0.71 ± 0.05 | 0.73 ± 0.05 | 0.74 ± 0.05 | 0.76 ± 0.05 | 0.77 ± 0.05 | 0.78 ± 0.05 |
| CCC(=O)OC [methyl propanoate] + COCC[N+]1(C)CCCC1.O=S(=O)([N-]S(=O)(=O)C(F)(F)F)C(F)(F)F | 0.92 ± 0.06 | 0.94 ± 0.06 | 0.96 ± 0.06 | 0.98 ± 0.06 | 0.99 ± 0.06 | 1.01 ± 0.06 |
| CC1CCCCC1 [methylcyclohexane] + COCC[N+]1(C)CCCC1.O=S(=O)([N-]S(=O)(=O)C(F)(F)F)C(F)(F)F | 15.4 ± 1.1 | 14.4 ± 1 | 13.5 ± 0.9 | 12.7 ± 0.9 | 12 ± 0.8 | 11.2 ± 0.8 |
| CCCCCCCCC [nonane] + COCC[N+]1(C)CCCC1.O=S(=O)([N-]S(=O)(=O)C(F)(F)F)C(F)(F)F | 58.1 ± 4 | 52.9 ± 3.6 | 48.4 ± 3.3 | 44.3 ± 3 | 41 ± 2.8 | 37.8 ± 2.6 |
| C=CCCCCCC [oct-1-ene] + COCC[N+]1(C)CCCC1.O=S(=O)([N-]S(=O)(=O)C(F)(F)F)C(F)(F)F | 20.8 ± 1.4 | 19.5 ± 1.3 | 18.2 ± 1.2 | 17.3 ± 1.2 | 16.3 ± 1.1 | 15.6 ± 1.1 |
| CCCCCCCC [octane] + COCC[N+]1(C)CCCC1.O=S(=O)([N-]S(=O)(=O)C(F)(F)F)C(F)(F)F | 40.5 ± 2.8 | 36.9 ± 2.5 | 33.9 ± 2.3 | 31.4 ± 2.1 | 29 ± 2 | 27 ± 1.8 |
| CCCC(C)=O [pentan-2-one] + COCC[N+]1(C)CCCC1.O=S(=O)([N-]S(=O)(=O)C(F)(F)F)C(F)(F)F | 0.83 ± 0.05 | 0.84 ± 0.05 | 0.86 ± 0.06 | 0.87 ± 0.06 | 0.89 ± 0.06 | 0.9 ± 0.06 |
| CCC(=O)CC [pentan-3-one] + COCC[N+]1(C)CCCC1.O=S(=O)([N-]S(=O)(=O)C(F)(F)F)C(F)(F)F | 0.831 ± 0.054 | 0.851 ± 0.055 | 0.871 ± 0.056 | 0.887 ± 0.056 | 0.905 ± 0.057 | 0.919 ± 0.058 |
| CCCCC [pentane] + COCC[N+]1(C)CCCC1.O=S(=O)([N-]S(=O)(=O)C(F)(F)F)C(F)(F)F | 13.4 ± 0.9 | 12.7 ± 0.9 | 12.1 ± 0.8 | 11.5 ± 0.8 | 11 ± 0.8 | 10.5 ± 0.7 |
| CCCO [propan-1-ol] + COCC[N+]1(C)CCCC1.O=S(=O)([N-]S(=O)(=O)C(F)(F)F)C(F)(F)F | 2.2 ± 0.15 | 2.02 ± 0.14 | 1.86 ± 0.13 | 1.71 ± 0.11 | 1.58 ± 0.1 | 1.48 ± 0.1 |
| CC(C)O [propan-2-ol] + COCC[N+]1(C)CCCC1.O=S(=O)([N-]S(=O)(=O)C(F)(F)F)C(F)(F)F | 2 ± 0.14 | 1.83 ± 0.12 | 1.67 ± 0.11 | 1.54 ± 0.1 | 1.43 ± 0.09 | 1.34 ± 0.09 |
| c1ccncc1 [pyridine] + COCC[N+]1(C)CCCC1.O=S(=O)([N-]S(=O)(=O)C(F)(F)F)C(F)(F)F | 0.602 ± 0.042 | 0.61 ± 0.043 | 0.618 ± 0.043 | 0.625 ± 0.043 | 0.633 ± 0.044 | 0.639 ± 0.044 |
| C=Cc1ccccc1 [styrene] + COCC[N+]1(C)CCCC1.O=S(=O)([N-]S(=O)(=O)C(F)(F)F)C(F)(F)F | 1.29 ± 0.08 | 1.32 ± 0.09 | 1.33 ± 0.09 | 1.36 ± 0.09 | 1.37 ± 0.09 | 1.39 ± 0.09 |
| C1CCOC1 [tetrahydrofuran] + COCC[N+]1(C)CCCC1.O=S(=O)([N-]S(=O)(=O)C(F)(F)F)C(F)(F)F | 0.81 ± 0.05 | 0.83 ± 0.05 | 0.84 ± 0.05 | 0.86 ± 0.06 | 0.87 ± 0.06 | 0.88 ± 0.06 |
| c1ccsc1 [thiophene] + COCC[N+]1(C)CCCC1.O=S(=O)([N-]S(=O)(=O)C(F)(F)F)C(F)(F)F | 0.885 ± 0.056 | 0.897 ± 0.057 | 0.909 ± 0.058 | 0.918 ± 0.058 | 0.929 ± 0.059 | 0.938 ± 0.059 |
| Cc1ccccc1 [toluene] + COCC[N+]1(C)CCCC1.O=S(=O)([N-]S(=O)(=O)C(F)(F)F)C(F)(F)F | 1.48 ± 0.1 | 1.5 ± 0.1 | 1.51 ± 0.1 | 1.53 ± 0.1 | 1.55 ± 0.1 | 1.56 ± 0.1 |
| O [water] + COCC[N+]1(C)CCCC1.O=S(=O)([N-]S(=O)(=O)C(F)(F)F)C(F)(F)F | 3.15 ± 0.21 | 2.81 ± 0.19 | 2.51 ± 0.17 | 2.26 ± 0.15 | 2.05 ± 0.14 | 1.85 ± 0.12 |
